ChEMBL document CHEMBL1143984, “Anti-inflammatory activity profile of JANEX-1 in preclinical animal models” (Bioorg Med Chem, 2008)
pIC50: −log10 of the molar value. Activity calls are given as the source filed them. The rule behind the calls is not given here.

Assays:
Mus musculus [1] = test: Antiinflammatory activity in paraffin oil challenged C3H-FeJ peritonitis mouse model assessed as peritoneal levage macrophage count per 10^5/mL at 4 mg/kg, ip after 7 days; format: functional; details: route intraperitoneal
Mus musculus [2] = test: Antiinflammatory activity in paraffin oil challenged ip dosed C3H-FeJ peritonitis mouse model after 7 days; format: functional; details: 168 h
Mus musculus [3] = test: Effect on TNF-mediated cytotoxicity against C3H-FeJ mouse L929 cells at 2 mg/kg, ip after 3 days; format: functional; details: route intraperitoneal
Mus musculus [4] = test: Antiinflammatory activity in paraffin oil challenged C3H-FeJ peritonitis mouse model assessed as peritoneal levage macrophage count per 10^5/mL at 2 mg/kg, ip after 7 days; format: functional; details: route intraperitoneal
[5] = target: T1, Tyrosine-protein kinase JAK3 (Mus musculus) (UniProt Q62137); test: Reduction of LPS-induced JAK3 phosphorylation in mouse RAW 264.7 cells at 100 ug/mL by Western blot analysis; format: cell-based
T1 sequence (whole entry): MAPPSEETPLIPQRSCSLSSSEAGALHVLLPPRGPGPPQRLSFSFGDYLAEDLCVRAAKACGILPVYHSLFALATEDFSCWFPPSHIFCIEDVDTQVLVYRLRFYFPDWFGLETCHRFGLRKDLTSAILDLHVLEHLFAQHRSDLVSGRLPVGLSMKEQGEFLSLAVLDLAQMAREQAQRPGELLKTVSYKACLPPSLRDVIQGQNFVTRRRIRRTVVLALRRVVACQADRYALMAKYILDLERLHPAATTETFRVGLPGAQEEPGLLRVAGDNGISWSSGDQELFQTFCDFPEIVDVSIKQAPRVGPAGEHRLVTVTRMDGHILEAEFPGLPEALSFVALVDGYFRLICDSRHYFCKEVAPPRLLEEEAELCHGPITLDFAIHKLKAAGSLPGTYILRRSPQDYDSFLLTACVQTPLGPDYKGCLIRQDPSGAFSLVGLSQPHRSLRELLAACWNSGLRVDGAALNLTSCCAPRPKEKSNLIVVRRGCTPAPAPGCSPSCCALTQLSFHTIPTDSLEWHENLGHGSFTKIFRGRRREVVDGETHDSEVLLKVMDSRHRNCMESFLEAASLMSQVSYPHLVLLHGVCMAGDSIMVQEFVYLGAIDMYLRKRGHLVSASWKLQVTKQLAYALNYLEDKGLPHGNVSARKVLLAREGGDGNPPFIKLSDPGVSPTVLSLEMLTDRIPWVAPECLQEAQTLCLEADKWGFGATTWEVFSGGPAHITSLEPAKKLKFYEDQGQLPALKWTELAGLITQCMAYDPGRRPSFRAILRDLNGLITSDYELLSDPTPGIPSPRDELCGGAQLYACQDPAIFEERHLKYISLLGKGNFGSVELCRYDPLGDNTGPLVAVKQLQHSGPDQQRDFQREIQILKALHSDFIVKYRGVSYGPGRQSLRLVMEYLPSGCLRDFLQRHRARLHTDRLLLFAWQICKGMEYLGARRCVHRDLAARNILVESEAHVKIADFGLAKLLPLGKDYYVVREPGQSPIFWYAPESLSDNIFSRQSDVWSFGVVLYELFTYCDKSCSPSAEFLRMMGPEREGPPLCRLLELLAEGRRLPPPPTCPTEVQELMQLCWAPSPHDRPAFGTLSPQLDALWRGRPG

Mus musculus [6] = test: Effect on LPS-induced nitric oxide production in C3H-FeJ peritonitis mouse peritoneal macrophages at 4 mg/kg, ip after 7 days; format: functional; details: route intraperitoneal
Mus musculus [7] = test: Effect on LPS-induced nitric oxide production in C3H-FeJ peritonitis mouse peritoneal macrophages at 2 mg/kg, ip after 7 days; format: functional; details: route intraperitoneal
Mus musculus [8] = test: Antiinflammatory activity against carrageenan-induced hind paw edema in CD1 foot-pad mouse model assessed as reduction in paw swelling at 30 mg/kg, ip after 6 hrs; format: functional, organism-based; design: dose 30 mg/kg
Mus musculus [9] = species: Mus musculus; test: Antiinflammatory activity against LPS-galactosamine challenged C57BL/6J SIRS mouse model at 500 ug assessed as mortality within 24 hrs; format: functional, organism-based
HT-29 [10] = test: Inhibition of LPS-stimulated prostaglandin E2 release in human HT29 cells after 6 hrs by ELISA; format: functional, cell-based
L929 [11] = test: Effect on TNF-mediated cytotoxicity against mouse L929 cells at 10 ug/mL after 18 hrs by crystal-violet staining assay; format: functional
Mus musculus [12] = test: Antiinflammatory activity against TNBS-induced colitis in BALB/c IBD mouse model at 25 mg/kg, ip; format: functional, organism-based; design: dose 25 mg/kg
RAW [13] = test: Inhibition of LPS-induced TNFalpha mRNA level in mouse RAW 264.7 cells by Northern blot analysis; format: functional, cell-based
Mus musculus [14] = test: Effect on LPS-induced nitric oxide production in C3H-FeJ peritonitis mouse peritoneal macrophages at 2 mg/kg, ip after 3 days; format: functional; details: route intraperitoneal
Mus musculus [15] = test: Effect on LPS-induced nitric oxide production in C3H-FeJ peritonitis mouse peritoneal macrophages at 4 mg/kg, ip after 3 days; format: functional; details: route intraperitoneal
RAW [16] = test: Inhibition of LPS-induced nitric oxide production in mouse RAW 264.7 cells assessed as nitrite formation; format: functional, cell-based
RAW [17] = test: Inhibition of LPS-induced TNFalpha production in mouse RAW 264.7 cells after 4 hrs by ELISA; format: functional, cell-based
HT-29 [18] = test: Inhibition of LPS-stimulated […] release in human HT29 cells after 6 hrs by ELISA; format: functional, cell-based
Mus musculus [19] = test: Antiinflammatory activity in paraffin oil challenged C3H-FeJ peritonitis mouse model assessed as peritoneal levage macrophage count per 10^5/mL at 2 mg/kg, ip after 3 days; format: functional; details: route intraperitoneal
L929 [20] = test: Inhibition of LPS-induced nitric oxide production in mouse L929 cells assessed as nitrite formation; format: functional, cell-based
Mus musculus [21] = test: Effect on TNF-mediated cytotoxicity against C3H-FeJ mouse L929 cells at 2 mg/kg, ip after 7 days; format: functional; details: route intraperitoneal
L929 [22] = test: Effect on TNF-mediated cytotoxicity against mouse L929 cells at 1 ug/mL after 18 hrs by crystal-violet staining assay; format: functional
Mus musculus [23] = test: Antiinflammatory activity in paraffin oil challenged C3H-FeJ peritonitis mouse model assessed as peritoneal levage macrophage count per 10^5/mL at 4 mg/kg, ip after 3 days; format: functional; details: route intraperitoneal
Mus musculus [24] = test: Antiinflammatory activity against carrageenan-induced hind paw edema in ICR foot-pad mouse model assessed as reduction in paw swelling at 30 mg/kg, ip after 6 hrs; format: functional, organism-based; design: dose 30 mg/kg
RAW [25] = test: Inhibition of LPS-induced iNOS mRNA level in mouse RAW 264.7 cells by Northern blot analysis; format: functional, cell-based
L929 [26] = test: Inhibition of LPS-induced TNFalpha production in mouse L929 cells after 4 hrs by ELISA; format: functional, cell-based; details: L929, 4 h
Mus musculus [27] = test: Effect on TNF-mediated cytotoxicity against C3H-FeJ mouse […] cells at 4 mg/kg, ip after 7 days; format: functional; details: route intraperitoneal
Mus musculus [28] = test: Effect on TNF-mediated cytotoxicity against C3H-FeJ mouse […] cells at 4 mg/kg, ip after 3 days; format: functional; details: route intraperitoneal
L929 [29] = test: Effect on TNF-mediated cytotoxicity against mouse L929 cells at 100 ug/mL after 18 hrs by crystal-violet staining assay; format: functional

Activity [5]: Active
pIC50 (RAW [16]): 5.85
pIC50 (RAW [17]): 3.90
SMILES: COc1cc2ncnc(Nc3ccc(O)cc3)c2cc1OC [WHI-P131]
Activity (Mus musculus [1]): 2.5
ED50 (Mus musculus [2]): 2.8 mg/kg
Activity (Mus musculus [3]): 31.8%
Activity (Mus musculus [4]): 4.3
Activity (Mus musculus [6]): 4 µM
Activity (Mus musculus [7]): 3 µM
Activity (Mus musculus [8]): Active
Activity (Mus musculus [9]): Non-toxic
Activity (HT-29 [10]): Active
Activity (L929 [11]): 25.7%
Activity (Mus musculus [12]): Active
Activity (RAW [13]): Dose-dependent effect
Activity (Mus musculus [14]): 40 µM
Activity (Mus musculus [15]): 13 µM
Activity (HT-29 [18]): Active
Activity (Mus musculus [19]): 3.1
pIC50 (L929 [20]): 5.77
Activity (Mus musculus [21]): 45.3%
Activity (L929 [22]): 45.9%
Activity (Mus musculus [23]): 2.3
Activity (Mus musculus [24]): Active
Activity (RAW [25]): Active
pIC50 (L929 [26]): 4.84
Activity (Mus musculus [27]): 34.6%
Activity (Mus musculus [28]): 18.8%
Activity (L929 [29]): 0%
